From patent US10421723B2, “2,3-diacylated, 2- and 3-mono-acylated alkylated imino sugars exhibiting glucosidase inhibition and their method of use” (priority 2016, dated 2019)

Legend:
[1] = Stability and conversion in simulated intestinal fluids; format: in vitro ADME; conditions: 4 h, 5 μM, 37° C.
Description: The stability of exemplary compounds of the present invention and their conversion to active derivatives in simulated intestinal fluids is evaluated. The working solutions of test compounds and control compound chlorambucil were prepared in DMSO at the concentration of 500 μM. 2 μL of the working solution and 198 μL of simulated intestinal fluids were added into centrifuge tubes to achieve a final concentration of 5 μM, and incubated at 37° C. water bath with shaking at approximately 60 rpm. One of the centrifuge tubes was taken at designated time points including 0, 1, 2, 3 and 4 hours. The assay was performed in duplicate. The reaction was stopped by adding 5 volumes of cold quench solution (acetonitrile containing internal standards (IS, 100 nM Alprazolam, 500 nM Labetalol and 2 μM Ketoprofen)) to the spiked simulated intestinal fluids samples at the appointed time points. Another time 0 samples of parent compound were also prepared, and they were used to calculate the conversion percentages of prodrugs to parent compound (used as T0-2). Samples were vortexed for 2 minutes and centrifuged at 20,000 g for 15 minutes at 4° C. to precipitate protein. And then 50 μL of the supernatant was transferred to a new 96-well plate with 100 μL quench solution and 100 μL water for LC-MS/MS analysis.

[2] = Stability and conversion in simulated gastric fluid; format: in vitro ADME; conditions: 4 h, 37° C.
Description: The stability of exemplary compounds of the present invention and their conversion to their active derivatives in simulated gastric fluid is evaluated. The working solutions of test compounds and control compound erythromycin were prepared in DMSO at the concentration of 500 μM. 2 μL of the working solution and 198 μL of simulated gastric fluids were added into centrifuge tubes to achieve a final concentration of […] incubated at 37° C. water bath with shaking at approximately 60 rpm. One of the centrifuge tubes was taken at designated time points including 0, 30, 60, 90 and 120 minutes. The assay was performed in duplicate. The reaction was stopped by adding 5 volumes of cold quench solution (acetonitrile containing internal standards (IS, 100 nM Alprazolam, 500 nM Labetalol and 2 μM Ketoprofen)) to the spiked simulated gastric fluids samples at the appointed time points. Another time 0 samples of parent compound were also prepared, and they were used to calculate the conversion percentages of prodrugs to parent compound (used as T0-2). Samples were vortexed for 2 minutes and centrifuged at 20,000 g for 15 minutes at 4° C. to precipitate protein. And then 50 μL of the supernatant was transferred to a new 96-well plate with 100 μL quench solution and 100 μL water for LC-MS/MS analysis.

target viruses = conditions: cited from earlier work

SMILES | Stability in Intestinal Fluid, Remaining [1] [%] | Stability in Gastric fluids, Remaining [2] [%] | concentrations to achieve EC50 values in tissue culture against their target viruses (target viruses)
CCCCOC(=O)OC1CN(CCCCCCN(C(=O)NC(C)(C)C)C2CCCCC2)C(CO)C(O)C1O (stereo not shown) [XXVIII(a)] | 62.7 | 98.1 | 
CCCC(=O)O[C@H]1CN2CC[C@H](O)[C@@H]2[C@@H](O)[C@@H]1O [Celgosivir] |  |  | near millimolar
CCCCN1C[C@H](O)[C@@H](O)[C@H](O)[C@H]1CO [NBDNJ, N-butyl-DNJ] |  |  | near millimolar
CC(C)COC(=O)OC1CN(CCCCCCN(C(=O)NC(C)(C)C)C2CCCCC2)C(CO)C(O)C1O (stereo not shown) [XXVIII(b)] | 70.9 | 89.2 | 
CC(NC(=O)OC(C)(C)C)C(=O)OC1C(O)CN(CCCCCCN(C(=O)NC(C)(C)C)C2CCCCC2)C(CO)C1O (stereo not shown) [XXX(a)] | 30.7 | 81.1 | 
CCCCOC(=O)OC1CN(CCCCCCN(C(=O)NC(C)(C)C)C2CCCCC2)C(CO)C(O)C1OC(=O)OCCCC (stereo not shown) [XXVII(a)] | 65.7 | 93 | 
